{"source": "patent US20220047587A1", "about": "“SYNERGISTIC COMPOSITIONS COMPRISING R-2-(SUBSTITUTED-SULFONYL)-HEXAHYDRO-PYRROLO[1,2-A]PYRAZIN-6(2H)-ONES AND S-2-(SUBSTITUTED-SULFONYL)-HEXAHYDRO-PYRROLO[1,2-A]PYRAZIN-6(2H)-ONES IN A NON-RACEMIC RATIO” (Metys Pharmaceuticals AG, priority 2018, published 2022)", "key": {"paclitaxel-treated rats [1]": {"system": "paclitaxel-treated rats", "assay": "Paclitaxel-induced mechanical allodynia (von Frey test) after i.v. administration", "assay_type": "in vivo, rat", "conditions": "single acute administration 1 mg/kg i.v., adult male Sprague Dawley rats, 0-75 min after injection (FIG. 1)", "source_text": "Each animal was placed in a chamber with a mesh metal floor covered by a plastic dome that enabled the animal to walk freely, but not to jump. The mechanical stimulus was then delivered in the mid-plantar skin of left hind paw using an electronic von Frey apparatus (37400 Dynamic Plantar Aesthesiometer, Ugo Basile, Comerio, Varese, Italy). The cut-off was set at 50 g, while the increasing force rate (ramp duration) was set at 20 s. In the single administration protocol, pain threshold measurements have been performed before (pre-dose) and at regular intervals after treatment. In the repeated treatment protocol, the pre-test value was measured 13 h after the last administration; afterward the animals received a new administration and measures were performed at the described times. Results are expressed in […] and represent the mean±S.E.M. of mechanical thresholds.\n(§1) Paclitaxel (2 mg/kg i.p.) was administered on days 1, 3, 5 and 8. Test compounds were dissolved in saline and administered intravenously at the dose of 1 mg/kg to adult male Sprague-Dawley rats (Charles River, Italy, 220-250 g weight). Data were obtained at 0-75 minutes after injection and are expressed as the mean±s.e.m. of six animals. *P<0.05 and **<0.01 vs vehicle+paclitaxel treated rats; °P<0.05 and ^°°P<0.01 vs. NT24336 (R) treated group. […] *P<0.05 and **<0.01 vss vehicle+paclitaxel treated rats."}, "paclitaxel-treated rats [2]": {"system": "paclitaxel-treated rats", "assay": "Paclitaxel-induced peripheral sensory neuropathy model, hyperalgesia (paw pressure) after i.v. administration", "assay_type": "in vivo, rat", "source_text": "Results are expressed as the minimum dose (via the indicated route) at which a statistically-significant difference is observed when compared to time-matched injured rats receiving a vehicle administration by the same route. An analysis of variance, ANOVA, followed by Fisher's protected least significant difference procedure for post hoc comparison, was used to verify significance between two means of hyperalgesic behavioral results from the Randall & Selitto apparatus paw pressure test (“anti-hyperalgesia”) or from the Von Frey test (“mechanical allodynia”) or from the Cold Plate test (“cold allodynia”). P values 0.05 were considered significant. This definition applies to any doses specified herein as inhibiting “in a statistically significant manner”.\nPaw mechanical sensitivity was determined using a Randall & Selitto apparatus (Randall and Selitto, 1957) exerting a force that increases at constant rate (32 g/s). The stimulus causing paw withdrawal was evaluated before and at different times after treatment. Results represent the mean of mechanical thresholds for paw withdrawal expressed as grams. To avoid possible damage to the rat paw the maximum applied force was set at 240 g. In the single administration protocol, paw pressure tests were performed before (pre-dose) and at regular intervals after treatment.\nas §1"}}}
{"smiles": "O=C1CCC2CN(S(=O)(=O)c3ccccc3F)CCN12", "note": "(racemic) [R:S mixture 1:1, 2-(2-fluorobenzenesulfonyl)hexahydropyrrolo[1,2-a]pyrazin-6-one]", "values": [{"measurement": "Effect on paclitaxel-induced mechanical allodynia (von Frey test)", "setting": "paclitaxel-treated rats [1]; 1 mg/kg", "value": "marginally effective"}]}
{"smiles": "O=C1CCC2CN(S(=O)(=O)c3ccccc3F)CCN12", "note": "(racemic) [R:S mixture 3:1, 2-(2-fluorobenzenesulfonyl)hexahydropyrrolo[1,2-a]pyrazin-6-one]", "values": [{"measurement": "Effect on paclitaxel-induced mechanical allodynia (von Frey test)", "setting": "paclitaxel-treated rats [1]; 1 mg/kg", "value": "the most active one"}]}
{"smiles": "O=C1CCC2CN(S(=O)(=O)c3ccccc3F)CCN12", "note": "(stereo not drawn) [NT-24781, 2-(2-fluorobenzenesulfonyl)hexahydropyrrolo[1,2-a]pyrazin-6-one]", "values": [{"measurement": "Effect on paclitaxel-induced mechanical allodynia (von Frey test)", "setting": "paclitaxel-treated rats [1]", "value": "almost inactive"}, {"measurement": "Lowest dose at which paclitaxel-induced hyperalgesia is inhibited in a statistically significant manner (P < 0.05)", "setting": "paclitaxel-treated rats [2]; 15 min after administration", "value": ">3", "unit": "mg/kg"}, {"measurement": "Lowest dose at which paclitaxel-induced hyperalgesia is inhibited in a statistically significant manner (P < 0.05)", "setting": "paclitaxel-treated rats [2]; 30 min after administration", "value": ">3", "unit": "mg/kg"}, {"measurement": "Lowest dose at which paclitaxel-induced hyperalgesia is inhibited in a statistically significant manner (P < 0.05)", "setting": "paclitaxel-treated rats [2]; 45 min after administration", "value": ">3", "unit": "mg/kg"}]}
